# Measurements reported in patent publication US20110086837A1, “COMBINATIONS OF A PI3K INHIBITOR AND A MEK INHIBITOR” (Genentech, Inc., priority 2009, published 2011).
# Key:
# [1] = system: NCI-H2122 (NSCLC, KRAS G12C, PI3K/PTEN WT) tumors; experiment: NCI-H2122 xenograft model, tumor growth inhibition; conditions: for sensitivity as single agent: NCI-H2122 xenograft, tumor growth delay, but not stasis or regression
# Procedure: NCI-H2122 cells (10×10^6 in Hanks Balance Salt Solution (HBSS)+Matrigel) were inoculated into nude mice (nu/nu) and tumors were allowed to establish to an average volume of ˜240 mm^3. […] Caliper measurements of animals' tumors and animal weights were taken every 3-4 days throughout the study and tumor volumes were calculated (TV=[L×(W^2)]/2) and plotted +/−SEM. Percent tumor growth inhibition was calculated by calculating the area under the curve (AUC) of each treatment group relative to vehicle control. Student's t-tests were performed on day 21 data to determine significance by p-value.
# GDC-0973 and GDC-0941 were used as therapeutic agents in the NCI-H2122 (NSCLC, KRAS^G12C, PI3K/PTEN WT) and A2058 (Melanoma, BRAF^V600E, PTEN^null) xenograft models. […]
# [2] = system: A2058 (Melanoma, BRAF V600E, PTEN null) tumors; experiment: A2058 xenograft model, tumor growth inhibition; format: in vivo, nude mice (nu/nu); conditions: for sensitivity as single agent: A2058 xenograft, tumor growth delay, but not stasis or regression
# Procedure: A2058 tumor-bearing animals were tested with both moderate and high doses of GDC-0973 (6 and 10 mg/kg, daily) and GDC-0941 (30 and 100 mg/kg, daily) as well as combinations of the lower and higher doses. […] Likewise, A2058 tumors are also moderately sensitive to single agent GDC-0941 with TGIs of 18% at 30 mg/kg and 56% at 100 mg/kg (FIGS. 3A and B, respectively).
# [3] = system: FaDu (HNSCC) tumors; experiment: FaDu xenograft model, tumor growth inhibition; format: in vivo
# Procedure: (A) Treatment was then begun dosing Vehicle (open circles)), GDC-0941 (100 mg/kg, QD, PO; filled triangles), GDC-973 (5 mg/kg, QD, PO; filled squares), or the combination of GDC-0941 and GDC-0973 (filled diamonds, solid lines, n=7). (B) the SKOV-4 (ovarian) Xenograph model. Treatment was then begun dosing Vehicle (open circles,), GDC-0941 (100 mg/kg, QD, PO; filled triangles), GDC-0973 (10 mg/kg, QD, PO; filled squares), or the combination of GDC-0941 and GDC-0973 (filled diamonds). Caliper measurements of animals' tumors and animal weights were taken every 3-4 days throughout the study and tumor volumes were calculated (TV=[L×(W^2)]/2) and plotted +/−SEM. Percent tumor growth inhibition was calculated by calculating the area under the curve (AUC) of each treatment group relative to vehicle control. Student's t-tests were performed on day 21 data to determine significance by p-value.
# FaDu (HNSCC) tumor-bearing animals were treated with either single agent GDC-0973 (5 mg/kg, daily) or GDC-0941 (100 mg/kg, daily) or the combination of the two.
# [4] = system: SKOV-3 (Ovarian) tumors; experiment: SKOV-3 xenograft model, tumor growth inhibition; format: in vivo; conditions: GDC-0941 single agent, 100 mg/kg daily
# Procedure: (B) the […] (ovarian) Xenograph model.
# SKOV-3 (Ovarian) tumor-bearing animals were treated with either single agent GDC-0973 (10 mg/kg, daily) or GDC-0941 (100 mg/kg, daily) or the combination of the two. […] The improved efficacy of the combination was statistically significant versus single agent GDC-0973 and GDC-0941 (p=0.0017 and p=0.0283, respectively, on Day 22).
# [5] = system: MOLM-16 (AML) tumors; experiment: MOLM-16 xenograft model, tumor growth inhibition; format: in vivo, nude mice (nu/nu)
# Procedure: (A) Treatment was then begun dosing Vehicle (open circles)), GDC-0941 (100 mg/kg, QD, PO; filled triangles), GDC-973 (10 mg/kg, QD, PO; filled squares), or the combination of GDC-0941 and GDC-0973 (filled diamonds, solid lines, n=7). […] Treatment was then begun dosing Vehicle (open circles,), GDC-0941 (100 mg/kg, QD, PO; filled triangles), GDC-0973 (5 mg/kg, QD, PO; filled squares), or the combination of GDC-0941 and GDC-0973 (filled diamonds). Caliper measurements of animals' tumors and animal weights were taken every 3-4 days throughout the study and tumor volumes were calculated (TV=[L×(W^2)]/2) and plotted +/−SEM. Percent tumor growth inhibition was calculated by calculating the area under the curve (AUC) of each treatment group relative to vehicle control. Student's t-tests were performed on day 21 data to determine significance by p-value.
# MOLM-16 (AML) tumor-bearing animals were treated with either single agent GDC-0973 (10 mg/kg, daily) or GDC-0941 (100 mg/kg, daily) or the combination of the two.
# [6] = GDC-0941 single agent, 100 mg/kg daily
# [7] = GDC-0973 single agent, 10 mg/kg daily
Compound,"tumor growth inhibition (TGI, relative to vehicle control) ([1]; GDC-0941 single agent, 30 mg/kg arm (so in the source))",sensitivity as single agent [1],sensitivity as single agent [2],"TGI ([2]; GDC-0941 single agent, 30 mg/kg daily)","TGI [2, 6]","percent tumor growth inhibition (% TGI) [3, 6]",% TGI [4],"percent tumor growth inhibition (% TGI) [5, 6]","tumor growth inhibition (TGI, relative to vehicle control) ([1]; GDC-0973 single agent, 5 mg/kg QD arm)","TGI ([2]; GDC-0973 single agent, 6 mg/kg daily)","TGI [2, 7]","percent tumor growth inhibition (% TGI) ([3]; GDC-0973 single agent, 5 mg/kg daily)","percent tumor growth inhibition (% TGI) [5, 7]"
"CS(=O)(=O)N1CCN(Cc2cc3nc(-c4cccc5[nH]ncc45)nc(N4CCOCC4)c3s2)CC1 [GDC-0941, 4-(2-(1H-indazol-4-yl)-6-((4-(methylsulfonyl)piperazin-1-yl)methyl)thieno[3,2-d]pyrimidin-4-yl)morpholine]",73%,moderate sensitivity,moderate sensitivity,18%,56%,33%,51%,40%,–,–,–,–,–
"O=C(c1ccc(F)c(F)c1Nc1ccc(I)cc1F)N1CC(O)([C@@H]2CCCCN2)C1 [GDC-0973, [3,4-Difluoro-2-(2-fluoro-4-iodo-phenylamino)-phenyl]-((S)-3-hydroxy-3-piperidin-2-yl-azetidin-1-yl)-methanone]",–,moderate sensitivity,moderate sensitivity,–,–,–,–,–,57%,41%,62%,41%,57%
